Source: PubChem BioAssay (NCI)
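All cell lines were grown in 96-well plates and treated with compound for 48 hours. GI50 is the concentration that inhibits growth by half. TGI is the concentration that stops growth completely.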

Legend:
Experiment in all cases: NCI anticancer screen, dose series, 48 h; in the data active means GI50 below about 0.43 µM; inactive means the rest
786-0 renal = system: 786-0 renal
A498 renal = system: A498 renal
A549 NSCLC = system: A549 NSCLC
ACHN renal = system: ACHN renal
BT-549 breast = system: BT-549 breast
CAKI-1 renal = system: CAKI-1 renal
CCRF-CEM leukemia = system: CCRF-CEM leukemia
COLO 205 colon = system: COLO 205 colon
DU-145 prostate = system: DU-145 prostate
EKVX NSCLC = system: EKVX NSCLC
HCC-2998 colon = system: HCC-2998 colon
HCT-116 colon = system: HCT-116 colon
HCT-15 colon = system: HCT-15 colon
HL-60(TB) leukemia = system: HL-60(TB) leukemia
HOP-62 NSCLC = system: HOP-62 NSCLC
HOP-92 NSCLC = system: HOP-92 NSCLC
HS 578T breast = system: HS 578T breast
HT29 colon = system: HT29 colon
IGROV1 ovarian = system: IGROV1 ovarian
K-562 leukemia = system: K-562 leukemia
KM12 colon = system: KM12 colon
LOX IMVI melanoma = system: LOX IMVI melanoma
M14 melanoma = system: M14 melanoma
MALME-3M melanoma = system: MALME-3M melanoma
MCF7 breast = system: MCF7 breast
MDA-MB-231 breast = system: MDA-MB-231 breast
MDA-MB-435 = system: MDA-MB-435
MOLT-4 leukemia = system: MOLT-4 leukemia
NCI-H226 lung = system: NCI-H226 lung
NCI-H23 lung = system: NCI-H23 lung
NCI-H460 lung = system: NCI-H460 lung
NCI-H522 lung = system: NCI-H522 lung
NCI/ADR-RES ovarian = system: NCI/ADR-RES ovarian
OVCAR-3 ovarian = system: OVCAR-3 ovarian
OVCAR-4 ovarian = system: OVCAR-4 ovarian
OVCAR-5 ovarian = system: OVCAR-5 ovarian
OVCAR-8 ovarian = system: OVCAR-8 ovarian
PC-3 prostate = system: PC-3 prostate
RPMI-8226 leukemia = system: RPMI-8226 leukemia
RXF 393 renal = system: RXF 393 renal
SF-268 CNS = system: SF-268 CNS
SF-295 CNS = system: SF-295 CNS
SF-539 CNS = system: SF-539 CNS
SK-MEL-2 melanoma = system: SK-MEL-2 melanoma
SK-MEL-28 melanoma = system: SK-MEL-28 melanoma
SK-MEL-5 melanoma = system: SK-MEL-5 melanoma
SK-OV-3 ovarian = system: SK-OV-3 ovarian
SN12C renal = system: SN12C renal
SNB-19 CNS = system: SNB-19 CNS
SNB-75 CNS = system: SNB-75 CNS
SR leukemia = system: SR leukemia
SW-620 colon = system: SW-620 colon
T-47D breast = system: T-47D breast
TK-10 renal = system: TK-10 renal
U251 CNS = system: U251 CNS
UACC-257 melanoma = system: UACC-257 melanoma
UACC-62 melanoma = system: UACC-62 melanoma
UO-31 renal = system: UO-31 renal

CC1(C)CC(=O)c2c(ccc(C(=O)C[C@@H](N)CO)c2N)O1
3.61 µM: TGI (UACC-62 melanoma)
> 38.2 µM: TGI (OVCAR-3 ovarian)
> 52.5 µM: TGI (MCF7 breast)
5.22 µM: TGI (SF-539 CNS)
> 54.9 µM: TGI (SF-295 CNS)
11.9 µM: TGI (BT-549 breast)
active: GI50 (HCC-2998 colon) 0.371 µM | GI50 (HCT-116 colon) 0.347 µM | GI50 (HCT-15 colon) 0.177 µM | GI50 (HT29 colon) 0.34 µM | GI50 (KM12 colon) 0.297 µM | GI50 (LOX IMVI melanoma) 0.0986 µM | GI50 (MCF7 breast) 0.399 µM | GI50 (MOLT-4 leukemia) 0.349 µM | GI50 (NCI-H460 lung) 0.166 µM | GI50 (SF-539 CNS) 0.399 µM | GI50 (SR leukemia) 0.15 µM | GI50 (SW-620 colon) 0.234 µM | GI50 (U251 CNS) 0.328 µM | GI50 (UACC-62 melanoma) 0.333 µM
15.3 µM: TGI (NCI-H522 lung)
27.7 µM: TGI (A498 renal)
12.2 µM: TGI (HCT-15 colon)
> 67.6 µM: TGI (T-47D breast)
> 63.7 µM: TGI (HL-60(TB) leukemia)
9.33 µM: TGI (SK-MEL-2 melanoma)
1.11 µM: TGI (LOX IMVI melanoma)
> 61.4 µM: TGI (786-0 renal)
47.8 µM: TGI (UACC-257 melanoma)
> 37.4 µM: TGI (MOLT-4 leukemia) | TGI (NCI-H226 lung)
21.4 µM: TGI (RPMI-8226 leukemia)
> 93.1 µM: TGI (DU-145 prostate)
> 60.2 µM: TGI (CCRF-CEM leukemia)
23.7 µM: TGI (CAKI-1 renal)
> 69.3 µM: TGI (HOP-92 NSCLC)
> 100 µM: TGI (A549 NSCLC) | TGI (ACHN renal) | TGI (EKVX NSCLC) | TGI (HCT-116 colon) | TGI (HS 578T breast) | TGI (IGROV1 ovarian) | TGI (K-562 leukemia) | TGI (MDA-MB-231 breast) | TGI (MDA-MB-435) | TGI (NCI-H23 lung) | TGI (NCI-H460 lung) | TGI (NCI/ADR-RES ovarian) | TGI (OVCAR-4 ovarian) | TGI (OVCAR-5 ovarian) | TGI (PC-3 prostate) | TGI (SK-OV-3 ovarian) | TGI (SN12C renal) | TGI (SNB-19 CNS) | TGI (SNB-75 CNS) | TGI (U251 CNS) | TGI (UO-31 renal)
12.7 µM: TGI (SW-620 colon)
> 76.9 µM: TGI (MALME-3M melanoma)
> 91.1 µM: TGI (HT29 colon)
> 43.9 µM: TGI (SK-MEL-5 melanoma)
> 37.3 µM: TGI (COLO 205 colon)
> 89.5 µM: TGI (SF-268 CNS)
> 69.6 µM: TGI (OVCAR-8 ovarian)
> 49.1 µM: TGI (HOP-62 NSCLC)
8.41 µM: TGI (M14 melanoma)
7.44 µM: TGI (RXF 393 renal)
inactive: GI50 (786-0 renal) 11.9 µM | GI50 (A498 renal) 0.921 µM | GI50 (A549 NSCLC) 1.42 µM | GI50 (ACHN renal) 1.25 µM | GI50 (BT-549 breast) 1.12 µM | GI50 (CAKI-1 renal) 0.564 µM | GI50 (CCRF-CEM leukemia) 0.556 µM | GI50 (COLO 205 colon) 1.05 µM | GI50 (DU-145 prostate) 0.849 µM | GI50 (EKVX NSCLC) 19 µM | GI50 (HL-60(TB) leukemia) 4.03 µM | GI50 (HOP-62 NSCLC) 0.643 µM | GI50 (HOP-92 NSCLC) 6.28 µM | GI50 (HS 578T breast) 20.6 µM | GI50 (IGROV1 ovarian) 0.958 µM | GI50 (K-562 leukemia) 0.531 µM | GI50 (M14 melanoma) 0.664 µM | GI50 (MALME-3M melanoma) 12.5 µM | GI50 (MDA-MB-231 breast) 3.13 µM | GI50 (MDA-MB-435) 2.39 µM | GI50 (NCI-H226 lung) 0.871 µM | GI50 (NCI-H23 lung) 1.17 µM | GI50 (NCI-H522 lung) 0.919 µM | GI50 (NCI/ADR-RES ovarian) 2.55 µM | GI50 (OVCAR-3 ovarian) 0.431 µM | GI50 (OVCAR-4 ovarian) 17.7 µM | GI50 (OVCAR-5 ovarian) 22.8 µM | GI50 (OVCAR-8 ovarian) 1.08 µM | GI50 (PC-3 prostate) 2.1 µM | GI50 (RPMI-8226 leukemia) 1.56 µM | GI50 (RXF 393 renal) 1.45 µM | GI50 (SF-268 CNS) 0.667 µM | GI50 (SF-295 CNS) 1.29 µM | GI50 (SK-MEL-2 melanoma) 1.04 µM | GI50 (SK-MEL-28 melanoma) 0.595 µM | GI50 (SK-MEL-5 melanoma) 1.37 µM | GI50 (SK-OV-3 ovarian) 7.32 µM | GI50 (SN12C renal) 0.788 µM | GI50 (SNB-19 CNS) 0.749 µM | GI50 (SNB-75 CNS) 17.7 µM | GI50 (T-47D breast) 4.56 µM | GI50 (TK-10 renal) 9.41 µM | GI50 (UACC-257 melanoma) 3.25 µM | GI50 (UO-31 renal) 1.1 µM
34.5 µM: TGI (SK-MEL-28 melanoma)
4.63 µM: TGI (HCC-2998 colon)
> 91.7 µM: TGI (KM12 colon)
46.8 µM: TGI (TK-10 renal)
